Data: patent publication US12637468B2, “Substituted [1,2,4]triazolo[4,3-b]pyridazines as GABAA receptor modulators” (SHANGHAI SIMR BIOTECHNOLOGY CO., LTD., priority 2019, dated 2026)
Converted amounts (≈) assume the structure as drawn.

How the values were obtained:
[1] = Thermodynamic solubility in phosphate buffer solution (TS in PBS); format: physicochemical; details: aqueous buffer, thermodynamic from solid, 50 mM phosphate buffer solution pH 7.4, shaken at room temperature for 24 hours
Protocol: 50 mM phosphate buffer solution pH=7.4:0.39 g of NaH2PO4·2H2O, and 1.4025 g of Na2HPO4 were weighted and placed in an erlenmeyer flask, then 240 mL of water was added thereto. The solid was dissolved and mixed thoroughly, and the pH value was adjusted to 7.4 with 10M NaOH solution, and the resulting solution was transferred to a 250 mL volumetric flask, followed by dilution to scale with water.
(§1) Waters e2695 HPLC high performance liquid chromatography, Mettler XSE105 analytical balance.
(§2) Firstly, a 10 mM stock solution was prepared with DMSO, and was diluted with a diluent (ACN: PB buffer 50:50) into 1 μM-200 μM as a standard solution.
Thermodynamic solubility in phosphate buffer solution (TS in PBS). 1 mg of the sample was weighed, and 1.5 mL of 50 mM phosphate buffer solution (pH 7.4) was added thereto, then the mixture was shaken at room temperature for 24 hours to ensure that the sample was saturated, and filtered. The filtrate was detected with the high performance liquid chromatograph (UV). The compounds of the present disclosure and comparative compounds are tested by this method, and the results are shown in Table 3 below: […]

[2] = Pharmacokinetic experiment on rats: brain entry ratio (brain tissue/plasma concentration ratio); format: in vivo; details: rat, male SD rats, po 10 mg/kg
Protocol: The drug concentration ratio of plasma and brain tissue in the pharmacokinetic experiment on rats was used to evaluate the entry of compounds into brain. All rats fasted overnight before administration; the test compounds were dissolved and administered orally (po) to male SD rats, with 3 rats in each group. After administration of the test compounds, blood was collected by jugular vein puncture at 0.5 hours with about 0.25 mL per sample. The whole brain was taken at the same time. The plasma and brain tissue drug concentration were determined by LC-MS/MS method, and the pharmacokinetic parameters were calculated by Phoenix WinNonlin7.0. The dosage was 10 mg/kg, and the vehicle was 5% CMC-Na aqueous solution.

[3] = Pharmacokinetic experiment on rats: maximum plasma drug concentration (Cmax); format: in vivo, rat; details: male SD rats, po, 10 mg/kg, vehicle 5% CMC-Na aqueous solution
Protocol: In the pharmacokinetic experiment on rats, the maximum plasma drug concentration (Cmax) was used to evaluate the absorption of the compounds in rats. All rats fasted overnight before administration; the test compounds were dissolved and administered orally (po) to male SD rats, with 3 rats in each group. After administration of the test compounds, blood was collected by jugular vein puncture at […] with about 0.25 mL per sample. The plasma drug concentration was determined by LC-MS/MS method, and the pharmacokinetic parameters were calculated by Phoenix WinNonlin7.0. The dosage was 10 mg/kg, and the vehicle was 5% CMC-Na aqueous solution.

α5-GABAA receptor [4] = biological target: T1, α5-GABAA receptor (Homo sapiens, UniProt P18507+P31644); experiment: Cell-level screening: whole cell patch clamp, inverse agonist efficacy on α5-GABAA receptor expressed in HEK293; format: cell-based; details: drug 100 nM, GABA 0.05 μM, HEK293 expressing α5, β3 and γ2 subunits, clamped at −60 mV; read-out: Compound inverse agonist efficacy %
T1 construct: expressed in transfected cells; host or cells: HEK293, monoclonal stably transfected line
Outline: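 Whole-cell patch clamp at −60 mV on HEK293 stably expressing α5β3γ2, pH 7.4 extracellular/CsCl internal solutions. Current evoked by 0.05 μM GABA, then compound in GABA solution; screening at 100 nM, dose-response 0.3–300 nM. Inverse agonist efficacy as % change of GABA current.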

[5] = Rat liver microsome stability (RLM) experiment; format: in vitro ADME; details: rat liver microsomal stability
Protocol: Effect embodiment 3 Rat liver microsome stability (RLM) experiment
Rat liver microsomes (Xenotech, item No. R1000, lot No. 1310030), 100 mM potassium phosphate buffer solution (pH 7.4), 10 mM magnesium chloride.
Compound preparation: 5 μL of compound DMSO mother liquor (10 mM) was added to 495 μL of methanol to obtain an intermediate solution with a compound concentration of 100 μM. Then 50 μL of the intermediate solution was taken and dissolved in 450 μL of potassium phosphate buffer solution to obtain a test solution with a final concentration of 10 μM.
NADPH regeneration system (concentration of isocitrate dehydrogenase 1 unit/mL).
Liver microsomes (final concentration 0.5 mg protein/mL).
Reaction termination solution: cold acetonitrile containing 100 ng/mL Tolbutamide and 100 ng/mL Labetalol as an internal standard.
• (1) Preparation of buffer solution: • Buffer solution A: 1.0 L of 0.1 M potassium phosphate buffer solution containing 1.0 mM EDTA • Buffer solution B: 1.0 L of 0.1 M dipotassium phosphate buffer solution containing 1.0 mM EDTA • Buffer solution C: 0.1 M potassium phosphate buffer, 1.0 mM EDTA, pH 7.4, titrated with 700 mL of buffer solution B and buffer solution A, monitored by pH meter. • (2) Preparation of reference substance (ketanserin) and concentration of administration solution of the test substance:
[…]: […] 10 mM DMSO reference substance stock solution and test substance stock solution were added to 190 μL of ACN, respectively. 1.5 μM administration solution (containing 0.75 mg/mL liver microsomes): […] administration solution and 18.75 μL of 20 mg/mL liver microsomes were added to 479.75 μL of buffer C on a wet ice. • (3) NADPH was added to buffer solution C to obtain a NADPH stock solution (6 mM). • (4) 30 μL of 1.5 μM administration solution (containing 0.75 mg/mL of liver microsomes) was taken on the wet ice and added to the wells of the test plate at different time points (0-, 5-, 15-, 30-, 45-min), respectively. • (5) Firstly, 135 μL of ACN containing IS was added to the wells of a 0 min test plate, and then 15 μL of the NADPH stock solution (6 mM) was added. • (6) The test plate at other time points and the NADPH stock solution were pre-heated in a 37° C. water bath for 5 minutes. • (7) 15 μL of the NADPH stock solution (6 mM) was taken and added to a pre-incubated test plate, and the reaction was started and timed. • (8) At 5 min, 15 min, 30 min and 45 min, 135 μL of CAN containing IS was added to the corresponding test plate respectively, and the test was completed. • (9) Test plates were shaken with a shaker (IKA, MTS 2/4) for 10 min (600 rpm/min) and then centrifuged for 15 min (Thermo Multifuge×3R, 5594 g). • (10) 50 μL of supernatant from each well was added to a 96-well sample plate containing 50 μL of ultrapure water (Millipore, ZMQS50F01), and the samples were analyzed by LC/MS.

α5-GABAA receptor [6] = details: cited from earlier work
α5-GABAA receptor [7] = details: in vivo; cited from earlier work
α5-GABAA receptor [8] = details: in vivo; cited from earlier work; remark: listed apart in the source
[9] = Thermodynamic solubility in simulated intestinal fluid (TS in FaSSIF); format: physicochemical; details: thermodynamic from solid, 37° C.
Protocol: Simulated intestinal fluid FaSSIF: 54.76 mg of FaSSIF-V2 (Biorelevant, batch. V2FAS-0619-A, lot. V2FAS01) was weighed and added to 15 mL of a buffer solution. After dissolving, the solution was supplemented to 30 mL, and put at room temperature for 1 hour before use.
as §1, §2
Thermodynamic solubility in intestinal fluid (TS in FaSSIF) was simulated. About 0.3 mg of each sample was weighed and added to 1.5 mL of FaSSIF solution, with two parts in parallel, shaken at 1000 rpm at 37° C. for 4 hours, filtered. 1 mL of an initial filtrate was discarded, and 400 μL of the subsequent filtrate was taken. The filtrate was detected by high performance liquid chromatograph (UV).

[10] = Water solubility observed on extraction work-up; format: physicochemical; details: observed on extraction with ethyl acetate at pH=7
Protocol: Methyl 6-[7-methoxy-3-(5-methyl-isoxazol-3-yl)-[1,2,4]triazolo[4,3-b]pyridazin-6-yloxymethyl]-nicotinate (300 mg, 0.75 mmol), 1M lithium hydroxide (1.5 mL, 1.5 mmol) were sequentially added to 10 mL of ethanol, and the mixture was stirred at room temperature for 1 hour. The mixture was added with 0.5 M hydrochloric acid to neutralize to pH=7, diluted with water, extracted with ethyl acetate. […] LC-MS: m/z [M+H]^+=383.

[11] = Table 4, 0.5 mg protein/mL, NADPH, 37° C., 0-45 min
[12] = Table 5, compounds of the disclosure and comparative compounds

T1 sequence (P31644 32-462): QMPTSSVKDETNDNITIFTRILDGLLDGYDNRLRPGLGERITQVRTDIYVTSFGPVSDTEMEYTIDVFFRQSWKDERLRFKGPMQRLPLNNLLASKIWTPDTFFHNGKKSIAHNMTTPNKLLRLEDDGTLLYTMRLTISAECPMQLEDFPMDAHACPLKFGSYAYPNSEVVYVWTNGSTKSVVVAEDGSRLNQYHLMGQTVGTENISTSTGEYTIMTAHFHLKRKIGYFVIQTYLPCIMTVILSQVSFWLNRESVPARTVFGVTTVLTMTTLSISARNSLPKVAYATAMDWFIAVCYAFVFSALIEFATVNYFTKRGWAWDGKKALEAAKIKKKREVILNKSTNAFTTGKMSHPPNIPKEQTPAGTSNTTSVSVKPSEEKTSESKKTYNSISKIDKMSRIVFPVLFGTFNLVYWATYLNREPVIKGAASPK
T1 sequence (P28472 26-473 partner): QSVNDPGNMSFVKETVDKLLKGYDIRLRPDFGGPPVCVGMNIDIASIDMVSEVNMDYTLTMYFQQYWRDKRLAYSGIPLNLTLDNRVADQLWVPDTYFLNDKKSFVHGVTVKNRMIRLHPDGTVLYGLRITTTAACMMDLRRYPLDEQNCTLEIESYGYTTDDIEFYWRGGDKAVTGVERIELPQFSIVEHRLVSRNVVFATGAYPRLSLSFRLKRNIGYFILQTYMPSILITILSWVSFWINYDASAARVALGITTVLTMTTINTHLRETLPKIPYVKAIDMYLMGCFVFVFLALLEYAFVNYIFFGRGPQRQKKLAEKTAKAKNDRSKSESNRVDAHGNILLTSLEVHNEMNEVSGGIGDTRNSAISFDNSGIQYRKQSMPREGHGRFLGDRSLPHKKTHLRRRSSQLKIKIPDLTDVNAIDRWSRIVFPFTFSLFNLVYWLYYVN
T1 sequence (P18507 40-467 isoform P18507-1 limits assumed): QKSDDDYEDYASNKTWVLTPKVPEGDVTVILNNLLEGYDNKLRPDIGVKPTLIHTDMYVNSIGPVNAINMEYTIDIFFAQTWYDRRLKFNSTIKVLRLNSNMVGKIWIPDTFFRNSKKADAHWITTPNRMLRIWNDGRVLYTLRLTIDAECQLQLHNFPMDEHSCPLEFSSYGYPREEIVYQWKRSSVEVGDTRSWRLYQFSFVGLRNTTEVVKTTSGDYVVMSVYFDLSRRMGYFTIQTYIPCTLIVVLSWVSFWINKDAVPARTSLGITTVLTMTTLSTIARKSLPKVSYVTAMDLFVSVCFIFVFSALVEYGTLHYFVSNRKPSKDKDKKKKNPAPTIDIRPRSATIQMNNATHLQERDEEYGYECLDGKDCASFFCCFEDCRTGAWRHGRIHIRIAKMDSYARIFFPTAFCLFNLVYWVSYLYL

## CCNC(=O)c1ccc(COc2nn3c(-c4cc(C)on4)nnc3cc2C(C)(C)C)nc1 [drawing 921]
[1]
  solubility thermodynamic at 24 h: 2.5 µg/mL (≈ 5.74 µM)

## COc1cc2nnc(-c3cc(C)on3)n2nc1OCc1ccccn1 [drawing 916]
[1]
  solubility thermodynamic at 24 h: 20.1 µg/mL (≈ 59.4 µM)

## Cc1cc(-c2nnc3c4ccccc4c(OCc4ccccn4)nn23)no1 [drawing 917]
[1]
  solubility thermodynamic at 24 h: 0.3 µg/mL (≈ 0.837 µM)

## Cc1cc(-c2nnc3cc(C(C)(C)C)c(OCc4ccccn4)nn23)no1 [drawing 930, reference compound]
[2]; Table 6
  Kp at 0.5 h: 0.651
[3]
  Maximum plasma drug concentration: 216 ng/mL

## CCNC(=O)c1ccc(COc2nn3c(-c4cc(C)on4)nnc3cc2OC)nc1 [drawing 919]
[1]
  solubility thermodynamic at 24 h: 14.2 µg/mL (≈ 34.7 µM)

## COc1cc2nnc(-c3cc(C)on3)n2nc1OCc1ccc2nc(C#N)cn2n1 [Embodiment 211, 6-(((7-Methoxy-3-(5-methylisoxazol-3-yl)-[1,2,4]triazolo[4,3-b]pyridazin-6-yl)oxy)methyl)imidazo[1,2-b]pyridazine-2-carbonitrile]
[2]; Table 7
  Kp at 0.5 h: 0.018
α5-GABAA receptor [4]
  inhibition at 0.1 µM: 64.7%
[5]; [11]
  RLM: 5 µL/min/mg

## CCOC(=O)c1ncn2c1[C@@H]1CCCN1C(=O)c1cc(OC)ccc1-2 [L-655,708]
α5-GABAA receptor [6]; GABA 1 μM, highest concentration of L-655,708
  suppression of the current: 15%
α5-GABAA receptor [6]; GABA 5, 50 and 500 nM
  inhibition of the current induced by low concentrations of GABA: dose-dependently inhibited
α5-GABAA receptor [6]; GABA concentration increased above 1 μM
  inhibitory effect on the current induced by GABA: no inhibitory effect

## Cn1ncnc1COc1nn2c(-c3cc(CO)on3)nncc2c1C(C)(C)C [MRK016-M3]
α5-GABAA receptor [7]
  inhibition of (3H)RO-15-1788 binding in the central nervous system: hardly inhibit

## COc1cc2nnc(-c3cc(C)on3)n2nc1OCc1ccccn1 [drawing 928]
[2]; Table 6
  Kp at 0.5 h: 0.07
[3]
  Maximum plasma drug concentration: 1778 ng/mL

## Cc1cc(-c2nnc3c4ccccc4c(OCc4cn(C)nn4)nn23)no1 [α5IA]
α5-GABAA receptor [8]
  therapeutic effects on the treatment of cognition related diseases in animal models: good therapeutic effects

## COc1cc2nnc(-c3cc(C)on3)n2nc1OCc1ccc(C(=O)O)cn1 [Embodiment 63, 6-(((7-Methoxy-3-(5-methylisoxazol-3-yl)-[1,2,4]triazolo[4,3-b]pyridazin-6-yl)oxy)methyl)nicotinate]
[9]
  solubility thermodynamic at 4 h: 307 µg/mL (≈ 803 µM)
[10]
  water solubility: good water solubility
α5-GABAA receptor [4]
  inhibition at 0.1 µM: 24.2%

## CCNC(=O)c1ccc(COc2nn3c(-c4cc(C)on4)nnc3cc2C(C)(C)C)nc1 [drawing 927, reference compound]
[5]; [12]
  RLM: 142.6 µL/min/mg

## Cc1cc(-c2nnc3cc(C(C)(C)C)c(OCc4ccccn4)nn23)no1 [drawing 918]
[1]
  solubility thermodynamic at 24 h: 2.6 µg/mL (≈ 7.13 µM)

## COc1cc2nnc(-c3cc(C)on3)n2nc1OCc1ccccn1 [drawing 922]
[5]; [12]
  RLM: 0.3 µL/min/mg

## COc1cc2nnc(-c3cc(C)on3)n2nc1OCc1ccc2c(n1)CCN(C1CCOC1)C2 (stereo not drawn) [Embodiment 183]
[2]; Table 7
  Kp at 0.5 h: 0.0183
α5-GABAA receptor [4]
  inhibition at 0.1 µM: 55.8%
[5]; [11]
  RLM: 5 µL/min/mg

## CCNC(=O)c1ccc(COc2nn3c(-c4cc(C)on4)nnc3c3ccccc23)nc1 [drawing 920]
[1]
  solubility thermodynamic at 24 h: 0.8 µg/mL (≈ 1.86 µM)

## Cc1cc(-c2nnc3c4ccccc4c(OCc4ccccn4)nn23)no1 [drawing 929, reference compound]
[2]; Table 6
  Kp at 0.5 h: 1.51
[3]
  Maximum plasma drug concentration: 25.7 ng/ mL ng/mL

## Cc1cc(-c2nncc3c(C(C)(C)C)c(OCc4ncnn4C)nn23)no1 [MRK-016]
α5-GABAA receptor [7]
  inhibition of (3H)RO-15-1788 binding in the central nervous system: effectively inhibit
α5-GABAA receptor [8]
  therapeutic effects on the treatment of cognition related diseases in animal models: good therapeutic effects
